Test results: patent US8748435B2, “Pyrazolo pyrimidine derivatives” (Novartis AG, priority 2011, dated 2014)

What was measured:
human GPR4 [1] = molecular target: T1, human GPR4 (Homo sapiens (Human), UniProt P46093); experiment: Human GPR4 binding assay ([3H]4 radioligand, membranes of 300.19 cells expressing human GPR4)
Description: a) Human GPR4 Binding Assay
(§1) Cells were grown in T175 flasks to a density of about 1×10^6 cells/mL in growth medium. The cells were harvested by centrifugation (3000 rpm for 30 minutes at 4° C.) and the pellet resuspended in ice cold buffer A (20 mM HEPES pH 7.8, 10 mM EDTA, 100 mM NaCl, 1 tab/40 mL protease inhibitor complete). […] The homogenate was centrifuged at 18000 rpm for 50 min at 4° C. and the membrane protein pellet resuspended in cold buffer A using the Polytron (2×20 seconds). The protein concentration is determined using the Bio Rad Protein Assay and human IgG as standard. The volume of the membrane protein suspension is adjusted to a final concentration of about 2 mg protein/mL. The suspension is then once again homogenized (Polytron) on ice at 25000 rpm for 20 seconds before being aliquoted and stored at −80° C.
(§2) Radio Ligand Binding Assay: Serial dilutions of compounds (stock in 10 mM DMSO) are prepared by first diluting the compounds in DMSO followed by a 1:50 dilution into assay buffer (10 mM HEPES, pH 8.0, 100 mM NaCl, 5 mM MgCl2, 1 mM CaCl2, 0.5% fatty acid-free BSA, 0.05% Tween-20). […] The desired amount of membranes (20 μg/well) is diluted with assay buffer. […] 100 μL of the membrane-suspension is added and the plate stirred for 60 minutes. […] The filter plate is washed 5 times with ice-cold wash buffer, dried and sealed at the bottom. Then 20 μL of Microscint 40 is added into each well and the top of the plate is sealed. Finally the plate is counted for 2 min/well in a TopCount NXT instrument (Packard Instruments). The data are analyzed using the GraphPad Prism™ software.

human GPR4 [2] = molecular target: T1, human GPR4; experiment: Cell-based assay for human GPR4 activity (pH-induced cAMP formation, HTRF, HeLa cells); settings: HeLa cells stably expressing human GPR4, pH-induced cAMP
Description: b) Cell-Based Assay for Human GPR4 Activity
(§3) HeLa cells stably expressing human GPR4 were established by transfecting the cells with a construct containing the human GPR4 coding sequence. The cells were grown in Dulbecco's Modified Eagle Medium (DMEM)/HAM's tissue culture medium F12 (HAM's F12) supplemented with 10% fetal calf serum (FCS), 100 u/ml penicillin, 100 μg/ml streptomycin and 400 μg/ml G418 and 10 mM Hepes pH 8.0. pH-induced formation of cAMP was determined using the homogeneous time resolved fluorescence (HTRF) technology as provided by CisBio Inc. The cells were seeded in 384-well plates and cultured for 24 hours at 37° C., 5% CO2 before performing the assay. Medium was removed and 10 μl buffer A (Hepes buffered saline (HBS), 10 mM Hepes, pH 8, 2 mM 3-Isobutyl-1-methylxanthin (IBMX)) was added. For compound testing, buffer A with 2× concentrated compounds was used. Cells were incubated for 15 min at room temperature. 10 μl buffer B (HBS, 30 mM Hepes, specific pH) was added to reach the appropriate final pH for stimulation (see below) and incubation was continued for 15 min at room temperature. […] HBS: 130 mM NaCl, 0.9 mM NaH2 PO4, 5.4 mM KCl, 0.8 mM MgSO4, CaCl2 1.8 mM, 25 mM glucose, 10-30 mM Hepes. Adjustment of HBS buffers:
(§4) Compounds were diluted from fresh stock solutions at 10 mM in DMSO to 2 mM and then used for serial dilutions in DMSO.

human GPR4 [3] = molecular target: T1, human GPR4; experiment: Human GPR4 binding assay with additional human serum albumin (4% HSA); settings: binding assay with 4% HSA
Description: as §1, §2
In a similar manner, a binding assay with additional human serum albumin (4% HSA) has been established.

rat GPR4 = rat GPR4 (Rattus norvegicus (Rat), UniProt Q4KLH9); experiment: Rat GPR4 cAMP assay; format: cell-based; settings: read-out: r cAMP IC50
Description: as §3, §4
(§5) In a similar manner, assays for the mouse (m) and rat (r) GPR4 receptors have been established.

Human H3 = Human H3 (Homo sapiens (Human), UniProt Q9Y5N1); experiment: Human H3 binding assay (SPA, [3H]-R-alpha-Methylhistamine); settings: 3 nM [3H]-R-alpha-Methylhistamine
Description: c) Human H3 Binding Assay
The Scintillation Proximity Binding Assay (SPA) assay was performed in a final volume of 50 μL per well in a 384-well polystyrene plate.
The final concentration of the radioligand was 3 nM. • 20 μL of a beads (PVT-WGA type A) and membranes mixed suspension in assay buffer, in order to get a final concentration of 10 μg/well of membranes and 200 μg/well of beads. As an example, 1471 μL membranes (Conc.: 5.1 mg/mL) and 1500 μL of bead suspension (Conc.: 100 mg/mL) are diluted to a final volume of 15 mL of assay buffer.
The plates were sealed and shaken at room temperature, then allowed to stand at room temperature for at least 1 hour. The plates were counted using a Perkin Elmer TopCount reader, each well being counted for 1 minute.

mouse GPR4 = mouse GPR4 (Mus musculus (Mouse), UniProt Q8BUD0); experiment: Mouse GPR4 cAMP assay; format: cell-based
Description: as §3, §4, §5

[4] = radioligand [3H]4 (example 39), membranes of 300.19 cells expressing human GPR4

T1 sequence (P46093 whole entry): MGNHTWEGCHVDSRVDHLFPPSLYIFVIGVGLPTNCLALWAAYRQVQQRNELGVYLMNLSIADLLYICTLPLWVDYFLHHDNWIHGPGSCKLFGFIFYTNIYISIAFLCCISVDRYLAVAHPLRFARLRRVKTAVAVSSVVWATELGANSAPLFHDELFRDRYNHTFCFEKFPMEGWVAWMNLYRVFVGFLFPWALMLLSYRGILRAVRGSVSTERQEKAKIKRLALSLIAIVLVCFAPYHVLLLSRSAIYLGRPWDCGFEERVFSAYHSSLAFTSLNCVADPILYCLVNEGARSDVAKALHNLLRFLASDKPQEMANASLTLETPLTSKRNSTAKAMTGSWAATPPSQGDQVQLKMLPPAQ
Chain of Human H3 (Q9Y5N1 whole entry): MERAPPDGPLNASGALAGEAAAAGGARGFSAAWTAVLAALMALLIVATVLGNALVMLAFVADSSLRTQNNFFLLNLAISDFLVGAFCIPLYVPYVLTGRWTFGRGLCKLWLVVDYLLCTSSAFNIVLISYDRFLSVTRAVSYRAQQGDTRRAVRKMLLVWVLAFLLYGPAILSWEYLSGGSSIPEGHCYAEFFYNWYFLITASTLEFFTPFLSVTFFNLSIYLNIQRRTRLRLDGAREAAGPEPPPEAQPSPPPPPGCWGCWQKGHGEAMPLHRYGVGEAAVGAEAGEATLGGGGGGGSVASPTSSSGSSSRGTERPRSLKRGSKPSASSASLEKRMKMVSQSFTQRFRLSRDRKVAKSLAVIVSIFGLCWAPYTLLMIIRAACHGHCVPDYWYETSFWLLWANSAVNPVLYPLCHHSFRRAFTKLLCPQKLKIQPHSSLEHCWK
Chain of rat GPR4 (Q4KLH9 whole entry): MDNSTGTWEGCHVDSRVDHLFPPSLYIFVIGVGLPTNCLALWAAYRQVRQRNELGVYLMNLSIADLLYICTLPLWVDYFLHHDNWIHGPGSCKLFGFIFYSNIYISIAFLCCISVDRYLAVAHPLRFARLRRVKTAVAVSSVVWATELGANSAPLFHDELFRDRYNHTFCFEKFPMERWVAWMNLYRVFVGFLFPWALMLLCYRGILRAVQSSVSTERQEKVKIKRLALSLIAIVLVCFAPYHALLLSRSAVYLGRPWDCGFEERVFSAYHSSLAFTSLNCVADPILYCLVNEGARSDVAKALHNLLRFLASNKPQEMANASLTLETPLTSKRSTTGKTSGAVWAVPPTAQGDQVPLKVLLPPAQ
Chain of mouse GPR4 (Q8BUD0 whole entry): as the sequence (Q4KLH9 whole entry) above, with W8G, R51H, T339S counted along it

| SMILES | IC50 (human GPR4 [1]; [4]) [nM] | IC50 (human GPR4 [2]) [nM] | IC50 (human GPR4 [3]) [nM] | IC50 (rat GPR4) [nM] | IC50 (Human H3) [nM] | IC50 (mouse GPR4) [nM] | IC50 (human GPR4 [1]) [nM] |
| --- | --- | --- | --- | --- | --- | --- | --- |
| CCc1nn2c(C)cc(C)nc2c1Cc1ccc(-c2nnc([C@H]3CC[C@H](N)CC3)o2)cc1 [Example 36, 4-{5-[4-(2-Ethyl-5,7-dimethyl-pyrazolo[1,5-a]pyrimidin-3-ylmethyl)-phenyl]-[1,3,4]oxadiazol-2-yl}-cyclohexylamine] | 5 | 51 | 17 | 2290 | > 30000 | 284 | – |
| CCc1nn2c(C)cc(C)nc2c1Cc1ccc(OC[C@H]2CC[C@@H](NC(=O)[C@H]3NCC[C@H]3O)CC2)cc1 [Example 24, (2S,3R)-3-Hydroxy-pyrrolidine-2-carboxylic acid {4-[4-(2-ethyl-5,7-dimethyl-pyrazolo[1,5-a]pyrimidin-3-ylmethyl)-phenoxymethyl]-cyclohexyl}-amide] | – | 70 | 63 | 792 | > 30000 | 365 | – |
| CCc1nn2c(C)cc(C)nc2c1Cc1ccc(/C=C/CC2(O)CNC2)cc1 [Example 2, 3-{(E)-3-[4-(2-Ethyl-5,7-dimethyl-pyrazolo[1,5-a]pyrimidin-3-ylmethyl)-phenyl]-allyl}-azetidin-3-ol] | – | 55 | 52 | 989 | > 10000 | 632 | 34 |
| CCc1nn2c(C)cc(C)nc2c1Cc1ccc(OCCN2CCNCC2)cc1 [Example 26, 2-Ethyl-5,7-dimethyl-3-[4-(2-piperazin-1-yl-ethoxy)-benzyl]-pyrazolo[1,5-a]pyrimidine] | – | 96 | 69 | 2640 | > 30000 | 633 | 44 |
| CCc1nn2c(C)cc(C)nc2c1Cc1ccc(-n2cc(CN3CC(N)C3)cn2)cc1 [Example 29, 1-{1-[4-(2-Ethyl-5,7-dimethyl-pyrazolo[1,5-a]pyrimidin-3-ylmethyl)-phenyl]-1H-pyrazol-4-ylmethyl}-azetidin-3-ylamine] | 21 | 36 | 30 | 430 | > 30000 | 211 | – |
| CCc1nn2c(C)cc(C)nc2c1Cc1ccc(/C=C/CN2CCN[C@H](COC)C2)cc1 [Example 10, 2-Ethyl-3-{4-[(E)-3-((S)-3-methoxymethyl-piperazin-1-yl)-propenyl]-benzyl}-5,7-dimethyl-pyrazolo[1,5-a]pyrimidine] | 33 | 54 | 93 | 1340 | > 30000 | 401 | – |
| CCc1nn2c(C)cc(C)nc2c1Cc1ccc(/C=C/CN2CCN(C(=O)[C@H](CO)NC)CC2)cc1 [Example 15, (S)-1-(4-{(E)-3-[4-(2-Ethyl-5,7-dimethyl-pyrazolo[1,5-a]pyrimidin-3-ylmethyl)-phenyl]-allyl}-piperazin-1-yl)-3-hydroxy-2-methylamino-propan-1-one] | 51 | 56 | 44 | 634 | 26000 | 216 | – |
